The source of these data is patent US10941136B2, “Quinazoline derivative or its salt and pharmaceutical composition comprising the same” (YUHAN CORPORATION, priority 2016, dated 2021).

Assay type in all cases: biochemical
One assay deals with T1, PI3Kδ (p110δ/p85α)(h) (Homo sapiens, UniProt O00329).
T1 construct: purchased Upstate (Millipore Co, Billerica, Mass., USA) #14˜604
In words: PI3K-HTRF in vitro enzyme assay, PI3Kδ. The settings on record: enzyme 0.1 μg/ml. On the procedure: (§1) The compounds of the present invention were tested for the activity of phosphatidylinositol 3-kinase delta (PI3K) by using a PI3K enzyme-homogeneous time resolved fluorescence (PI3K-HTRF) kit, which is available under Upstate™ kit (Millipore Co, Billerica, Mass., USA). This kit system measures indirectly the amount of PIP3 produced via PI3K by detecting competitive inhibition of fluorescence complex formation.
(§2) There were used three kinds of buffer solutions, i.e., reaction buffer, stop solution, and detection solution. The reaction buffer was prepared by diluting Reaction Buffer (provided in Update™ kit) with distilled water 4 times and adding DTT to a concentration of 5 mM. The stop solution was prepared by combining STOP A and B Solutions (provided in Update™ kit) in a ratio of 3:1. The detection solution was prepared by combining Detection Solution A, B and C (provided in Update™ kit) in a ratio of 1:1:18. A substrate solution and an ATP solution were prepared by diluting the 1 mM PIP2 (phosphatidyl inositol 4,5 bi-phosphate) stock solution (provided in Update™ kit) and 10 mM ATP (Sigma-aldrich Co., St. Louis, Mo., USA) stock solution with the reaction buffer to concentrations of 20 μM and 40 μM, respectively. An enzyme solution was prepared by diluting PI3Kδ (#14˜604; Upstate™ kit) with the substrate solution to the concentration of 0.2 μg/ml (final reaction concentration: 0.1 μg/ml).
(§3) The test groups were prepared by dissolving each compound in 100% DMSO at 40× the final concentration and then diluting 10-fold with the reaction buffer. 5 μl of each diluted test group solution was transferred to a 384 well low flange white flat bottom microplate (#3572, Corning Life Sciences, Lowell, Mass., USA). We performed centrifuge (1 minute, 1000 rpm) and shaking for 2 minutes after every solution-adding step in this experiment. Next, 10 μl of the enzyme solution was added to each well. A mixed solution of the substrate solution (10 μl) plus 5 μl of the 100% DMSO diluted solution without test compound (i.e., 10% DMSO solution) was used as a negative control. And also, a mixed solution of enzyme solution (10 μl) plus 5 μl of the 100% DMSO diluted solution without test compound (i.e., 10% DMSO solution) was used as a positive control. This plate was pre-incubated for 10 minutes in a 25° C. incubator. After the pre-incubation, the phosphorylation reaction was induced by adding 5 μl of the ATP solution and the plate was incubated for 30 minutes in a 25° C. incubator. This enzyme reaction was stopped by 5 μl of the stop solution and then 5 μl of the detection solution was added thereto. To obtain enough fluorescence responses, the plate was incubated for 2 hours in a 25° C. incubator protected from light.
(§4) The time-resolved fluorescence resonance energy transfer (TR-FRET) rate was measured (emission wavelength: 665 nm, 620 nm, excitation wavelength: 313 nm) by using a Flexstation3 Micro plate reader (Molecular Devices, USA). TR-FRET Rate was calculated based on the Equation 1 and using these TR-FRET Rates, % inhibition rate of each compound was calculated based on the Equation 2. The IC50 values, i.e., the concentration of a test compound that inhibits 50% of PI3Kδ activity in vitro, are generated by Softmax program (Molecular Devices, USA). TR-FRET Rate=(Signal at 665 nm emission wavelength/Signal at 620 nm emission wavelength)×10000 <Equation 1> % Inhibition Rate=[(TR-FRET Rate of the test group−TR-FRET Rate of the positive control group)/(TR-FRET Rate of the negative control group−TR-FRET Rate of the positive control group)]×100 <Equation 2>
On the technique in general: In TR-FRET formats the signal depends on donor and acceptor labels being close together.

The target in the next assay is T2, PI3Kα (p110α/p85α)(h) (Homo sapiens, UniProt P42336).
T2 construct: purchased Upstate (Millipore Co) #14-602
The experiment in a line: PI3K-HTRF in vitro enzyme assay, PI3Kα. To be noted: enzyme 0.1 μg/ml. As to the method: as §1, §2, §3, §4
(§5) The compounds of the present invention were assayed for the activities of PI3K subtypes, i.e., PI3Kα, PI3Kβ and PI3Kγ, using the same procedures as in Experimental Example 1. […]

The target in the next assay is T3, PI3Kβ (p110β/p85α)(h) (Homo sapiens, UniProt P42338).
T3 construct: purchased Upstate (Millipore Co) #14-603
In words: PI3K-HTRF in vitro enzyme assay, PI3Kβ. To be noted: enzyme 0.4 μg/ml. As to the method: as §1, §2, §3, §4, §5

The next assay addresses T4, PI3Kγ (p120γ)(h) (Homo sapiens, UniProt P48736).
T4 construct: purchased Upstate (Millipore Co) #14-558
The experiment in a line: PI3K-HTRF in vitro enzyme assay, PI3Kγ. The settings on record: enzyme 0.4 μg/ml. On the procedure:
as §1, §2, §3, §4, §5

For orientation: IC50 means the midpoint of a concentration-inhibition curve.

T1 sequence (O00329 whole entry): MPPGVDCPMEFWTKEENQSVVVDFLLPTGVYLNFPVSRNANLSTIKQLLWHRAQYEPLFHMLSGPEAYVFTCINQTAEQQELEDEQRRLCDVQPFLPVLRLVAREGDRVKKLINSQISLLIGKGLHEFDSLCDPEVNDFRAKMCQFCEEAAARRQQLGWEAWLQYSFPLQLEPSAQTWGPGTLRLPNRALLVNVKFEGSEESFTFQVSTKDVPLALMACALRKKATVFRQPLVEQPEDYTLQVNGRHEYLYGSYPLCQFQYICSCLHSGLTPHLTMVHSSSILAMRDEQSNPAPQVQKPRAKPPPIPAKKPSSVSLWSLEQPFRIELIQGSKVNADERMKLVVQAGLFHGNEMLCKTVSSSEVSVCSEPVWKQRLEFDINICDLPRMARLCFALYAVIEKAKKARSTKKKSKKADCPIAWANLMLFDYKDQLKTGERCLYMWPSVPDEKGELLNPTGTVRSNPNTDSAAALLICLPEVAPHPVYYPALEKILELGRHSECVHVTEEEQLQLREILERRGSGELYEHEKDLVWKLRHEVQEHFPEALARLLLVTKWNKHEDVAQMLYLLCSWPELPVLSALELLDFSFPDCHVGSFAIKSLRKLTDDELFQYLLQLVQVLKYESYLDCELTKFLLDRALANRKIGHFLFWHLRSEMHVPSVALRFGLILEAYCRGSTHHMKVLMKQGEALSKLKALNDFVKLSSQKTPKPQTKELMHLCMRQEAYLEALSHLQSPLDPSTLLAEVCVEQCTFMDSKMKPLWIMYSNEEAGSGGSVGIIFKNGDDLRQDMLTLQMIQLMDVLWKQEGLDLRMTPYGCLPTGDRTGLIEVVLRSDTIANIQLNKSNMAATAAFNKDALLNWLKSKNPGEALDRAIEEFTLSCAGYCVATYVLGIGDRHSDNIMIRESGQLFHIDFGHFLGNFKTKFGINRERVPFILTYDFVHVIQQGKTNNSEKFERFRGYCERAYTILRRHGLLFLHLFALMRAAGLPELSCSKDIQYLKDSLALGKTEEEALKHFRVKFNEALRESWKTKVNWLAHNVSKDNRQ
T1 sequence (P27986 whole entry partner): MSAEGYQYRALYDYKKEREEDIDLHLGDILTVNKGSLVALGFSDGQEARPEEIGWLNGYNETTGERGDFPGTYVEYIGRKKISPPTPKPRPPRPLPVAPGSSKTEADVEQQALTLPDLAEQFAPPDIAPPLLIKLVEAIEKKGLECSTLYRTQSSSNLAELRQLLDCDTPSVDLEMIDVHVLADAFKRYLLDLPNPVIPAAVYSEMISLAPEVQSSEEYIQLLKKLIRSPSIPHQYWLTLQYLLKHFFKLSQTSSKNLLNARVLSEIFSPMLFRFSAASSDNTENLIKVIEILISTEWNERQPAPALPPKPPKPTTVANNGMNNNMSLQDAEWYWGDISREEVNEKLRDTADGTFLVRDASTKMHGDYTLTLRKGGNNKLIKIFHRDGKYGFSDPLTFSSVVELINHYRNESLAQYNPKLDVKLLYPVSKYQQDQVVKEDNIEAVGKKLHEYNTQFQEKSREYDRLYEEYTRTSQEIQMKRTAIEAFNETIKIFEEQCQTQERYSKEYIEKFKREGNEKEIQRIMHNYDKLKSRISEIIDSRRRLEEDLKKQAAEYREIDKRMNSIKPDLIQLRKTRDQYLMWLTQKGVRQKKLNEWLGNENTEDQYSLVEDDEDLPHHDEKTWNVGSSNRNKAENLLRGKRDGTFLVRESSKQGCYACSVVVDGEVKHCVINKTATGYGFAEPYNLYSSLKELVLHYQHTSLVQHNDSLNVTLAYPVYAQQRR
T2 sequence (P42336 whole entry): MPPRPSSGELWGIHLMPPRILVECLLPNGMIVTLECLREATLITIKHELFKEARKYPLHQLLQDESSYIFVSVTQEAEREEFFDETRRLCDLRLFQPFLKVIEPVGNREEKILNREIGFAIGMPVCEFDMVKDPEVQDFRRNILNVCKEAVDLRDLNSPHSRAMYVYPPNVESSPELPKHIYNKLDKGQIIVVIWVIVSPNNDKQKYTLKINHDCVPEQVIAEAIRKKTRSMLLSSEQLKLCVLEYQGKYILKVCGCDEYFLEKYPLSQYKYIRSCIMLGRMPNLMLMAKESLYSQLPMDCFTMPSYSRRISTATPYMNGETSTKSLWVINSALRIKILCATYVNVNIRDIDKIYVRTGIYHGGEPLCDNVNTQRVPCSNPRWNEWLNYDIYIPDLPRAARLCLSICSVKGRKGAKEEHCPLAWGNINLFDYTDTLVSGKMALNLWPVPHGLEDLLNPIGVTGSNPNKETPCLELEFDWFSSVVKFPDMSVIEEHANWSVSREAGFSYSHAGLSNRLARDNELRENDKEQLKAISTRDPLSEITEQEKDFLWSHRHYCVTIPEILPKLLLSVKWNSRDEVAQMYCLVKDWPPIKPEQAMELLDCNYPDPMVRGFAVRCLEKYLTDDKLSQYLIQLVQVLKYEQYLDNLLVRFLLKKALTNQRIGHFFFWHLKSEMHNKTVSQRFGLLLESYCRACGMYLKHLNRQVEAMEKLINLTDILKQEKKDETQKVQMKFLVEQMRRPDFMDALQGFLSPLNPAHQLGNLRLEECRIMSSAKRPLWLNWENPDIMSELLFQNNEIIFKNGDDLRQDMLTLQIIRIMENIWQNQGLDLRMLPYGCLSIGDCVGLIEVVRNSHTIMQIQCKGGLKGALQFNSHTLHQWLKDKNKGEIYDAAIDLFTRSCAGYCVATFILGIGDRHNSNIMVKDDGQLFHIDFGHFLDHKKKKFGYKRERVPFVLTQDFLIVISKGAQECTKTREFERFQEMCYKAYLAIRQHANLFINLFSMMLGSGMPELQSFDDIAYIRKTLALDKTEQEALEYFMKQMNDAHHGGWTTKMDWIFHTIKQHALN
T2 sequence (P27986 whole entry partner): as the sequence (P27986 whole entry partner) above
T4 sequence (P48736 whole entry): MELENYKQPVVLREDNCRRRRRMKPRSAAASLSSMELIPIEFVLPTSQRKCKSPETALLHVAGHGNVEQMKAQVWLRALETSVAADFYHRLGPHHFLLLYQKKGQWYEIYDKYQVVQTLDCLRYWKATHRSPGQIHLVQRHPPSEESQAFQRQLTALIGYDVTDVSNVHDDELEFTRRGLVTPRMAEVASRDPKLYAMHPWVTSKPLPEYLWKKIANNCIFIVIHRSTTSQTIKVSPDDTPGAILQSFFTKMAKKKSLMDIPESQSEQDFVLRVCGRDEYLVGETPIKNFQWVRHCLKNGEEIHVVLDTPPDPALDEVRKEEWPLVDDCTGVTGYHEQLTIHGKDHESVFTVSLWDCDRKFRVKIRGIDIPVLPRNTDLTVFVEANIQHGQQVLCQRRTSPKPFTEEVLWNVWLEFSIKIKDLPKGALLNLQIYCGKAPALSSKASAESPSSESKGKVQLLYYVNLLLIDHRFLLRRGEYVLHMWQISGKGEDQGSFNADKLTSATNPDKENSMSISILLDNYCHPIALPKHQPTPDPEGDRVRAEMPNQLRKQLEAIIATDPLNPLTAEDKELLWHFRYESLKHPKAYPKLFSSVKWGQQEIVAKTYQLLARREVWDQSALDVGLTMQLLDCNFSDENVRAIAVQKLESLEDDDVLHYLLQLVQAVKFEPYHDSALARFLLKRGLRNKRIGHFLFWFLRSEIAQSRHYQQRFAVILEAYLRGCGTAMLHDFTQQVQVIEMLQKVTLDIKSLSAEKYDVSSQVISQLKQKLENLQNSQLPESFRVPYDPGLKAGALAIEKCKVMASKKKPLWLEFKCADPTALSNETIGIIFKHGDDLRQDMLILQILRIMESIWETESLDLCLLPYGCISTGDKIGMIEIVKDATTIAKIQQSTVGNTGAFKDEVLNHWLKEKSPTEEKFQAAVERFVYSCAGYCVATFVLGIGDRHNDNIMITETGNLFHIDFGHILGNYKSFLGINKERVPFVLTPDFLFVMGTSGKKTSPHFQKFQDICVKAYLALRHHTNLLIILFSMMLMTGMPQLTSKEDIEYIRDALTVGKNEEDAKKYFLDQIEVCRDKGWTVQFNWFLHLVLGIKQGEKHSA
T3 sequence (P42338 whole entry): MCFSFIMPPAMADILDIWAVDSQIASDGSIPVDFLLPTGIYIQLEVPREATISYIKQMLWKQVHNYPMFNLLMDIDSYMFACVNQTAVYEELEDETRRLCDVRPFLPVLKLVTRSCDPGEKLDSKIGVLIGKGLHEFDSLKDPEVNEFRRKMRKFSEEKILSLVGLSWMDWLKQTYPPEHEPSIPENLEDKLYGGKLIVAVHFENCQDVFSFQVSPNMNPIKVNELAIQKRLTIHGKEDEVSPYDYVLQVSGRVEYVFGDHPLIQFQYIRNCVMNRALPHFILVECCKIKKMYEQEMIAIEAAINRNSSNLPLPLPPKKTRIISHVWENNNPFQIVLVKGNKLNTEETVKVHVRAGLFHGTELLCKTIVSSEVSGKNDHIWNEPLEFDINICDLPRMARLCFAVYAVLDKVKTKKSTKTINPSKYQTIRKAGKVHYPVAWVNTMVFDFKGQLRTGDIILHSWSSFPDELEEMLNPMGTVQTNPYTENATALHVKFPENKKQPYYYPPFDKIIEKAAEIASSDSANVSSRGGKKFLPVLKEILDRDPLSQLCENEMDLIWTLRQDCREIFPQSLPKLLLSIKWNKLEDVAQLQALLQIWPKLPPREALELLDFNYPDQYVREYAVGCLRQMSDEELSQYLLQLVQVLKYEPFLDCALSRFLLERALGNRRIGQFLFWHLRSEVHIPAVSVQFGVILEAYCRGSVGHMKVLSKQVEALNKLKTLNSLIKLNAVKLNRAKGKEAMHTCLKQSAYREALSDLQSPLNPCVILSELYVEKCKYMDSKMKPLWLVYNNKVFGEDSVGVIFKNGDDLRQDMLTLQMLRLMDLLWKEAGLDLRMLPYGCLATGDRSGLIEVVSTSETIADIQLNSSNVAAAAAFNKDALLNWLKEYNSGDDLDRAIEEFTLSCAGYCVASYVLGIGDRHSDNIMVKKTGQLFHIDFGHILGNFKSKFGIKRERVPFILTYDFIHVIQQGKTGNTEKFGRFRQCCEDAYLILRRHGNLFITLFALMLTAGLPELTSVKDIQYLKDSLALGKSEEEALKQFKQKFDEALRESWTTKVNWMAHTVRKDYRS
T3 sequence (P27986 whole entry partner): as the sequence (P27986 whole entry partner) above

Take `C[C@H](Nc1ncnc2ccc(C#N)cc12)c1nc2cccc(-c3cnc(N)nc3)c2c(=O)n1-c1ccccc1` [Example 2, (S)-4-((1-(5-(2-aminopyrimidin-5-yl)-4-oxo-3-phenyl-3,4-dihydroquinazolin-2-yl)ethyl)amino)quinazoline-6-carbonitrile]: the IC50 against PI3Kδ (p110δ/p85α)(h) amounted to 4 nM; against PI3Kα (p110α/p85α)(h), 598 nM; against PI3Kβ (p110β/p85α)(h), 6710 nM; against PI3Kγ (p120γ)(h), 117 nM.
For `CCC[C@H](Nc1ncnc2ccc(C#N)cc12)c1nc2cccc(-c3cnc(OC)nc3)c2c(=O)n1-c1ccccc1` [Example 10, (S)-4-((1-(5-(2-methoxypyrimidin-5-yl)-4-oxo-3-phenyl-3,4-dihydroquinazolin-2-yl)butyl)amino)quinazoline-6-carbonitrile] the same measures were 17 nM, 3420 nM, 7500 nM and 465 nM.
With `CCC[C@H](Nc1ncnc2ccc(C#N)cc12)c1nc2cccc(-c3cnc(OCC)nc3)c2c(=O)n1-c1ccccc1` [Example 11, (S)-4-((1-(5-(2-ethoxypyrimidin-5-yl)-4-oxo-3-phenyl-3,4-dihydroquinazolin-2-yl)butyl)amino)quinazoline-6-carbonitrile], the IC50 at PI3Kδ (p110δ/p85α)(h) turned out to be 16 nM; on PI3Kα (p110α/p85α)(h), 4740 nM; against PI3Kβ (p110β/p85α)(h), 8950 nM; at PI3Kγ (p120γ)(h), 432 nM.
For `CCC[C@H](Nc1ncnc2ccc(C#N)cc12)c1nc2cccc(-c3cnc(N)nc3)c2c(=O)n1-c1ccccc1` [Example 12, (S)-4-((1-(5-(2-aminopyrimidin-5-yl)-4-oxo-3-phenyl-3,4-dihydroquinazolin-2-yl)butyl)amino)quinazoline-6-carbonitrile] the same measures were 6 nM, 621 nM, 3060 nM and 108 nM.
For `C[C@H](Nc1ncnc2ccc(C#N)cc12)c1nc2cccc(-c3cncnc3)c2c(=O)n1C1CC1` [Example 17, (S)-4-((1-(3-cyclopropyl-4-oxo-5-(pyrimidin-5-yl)-3,4-dihydroquinazolin-2-yl)ethyl)amino)quinazoline-6-carbonitrile] the same measures were 10 nM, 2640 nM, 3820 nM and 947 nM.
Consider `COc1ncc(-c2cccc3nc([C@H](C)Nc4ncnc5ccc(C#N)cc45)n(C4CC4)c(=O)c23)cn1` [Example 18, (S)-4-((1-(3-cyclopropyl-5-(2-methoxypyrimidin-5-yl)-4-oxo-3,4-dihydroquinazolin-2-yl)ethyl)amino)quinazoline-6-carbonitrile], for which the IC50 at PI3Kδ (p110δ/p85α)(h) came out at 19 nM; at PI3Kα (p110α/p85α)(h), 2710 nM; at PI3Kβ (p110β/p85α)(h) it was 5790 nM; against PI3Kγ (p120γ)(h), 771 nM.
`CCOc1ncc(-c2cccc3nc([C@H](C)Nc4ncnc5ccc(C#N)cc45)n(C4CC4)c(=O)c23)cn1` [Example 19, (S)-4-((1-(3-cyclopropyl-5-(2-ethoxypyrimidin-5-yl)-4-oxo-3,4-dihydroquinazolin-2-yl)ethyl)amino)quinazoline-6-carbonitrile]: the concentration for half-maximal inhibition (IC50) against PI3Kδ (p110δ/p85α)(h) came out at 21 nM; on PI3Kα (p110α/p85α)(h), 2020 nM; against PI3Kβ (p110β/p85α)(h), 6730 nM; on PI3Kγ (p120γ)(h) it was 593 nM.
`CC[C@H](Nc1ncnc2cccc(F)c12)c1nc2cccc(-c3cnc(F)nc3)c2c(=O)n1-c1ccccc1` [Example 26, (S)-5-(2-fluoropyrimidin-5-yl)-2-(1-((5-fluoroquinazolin-4-yl)amino)propyl)-3-phenylquinazolin-4(3H)-one]: the values for the half-inhibitory concentration (IC50) against PI3Kδ (p110δ/p85α)(h), at PI3Kα (p110α/p85α)(h) and against PI3Kγ (p120γ)(h) were 17 nM, 4470 nM and 3420 nM, respectively.
For `CC[C@H](Nc1ncnc2cccc(F)c12)c1nc2cccc(-c3cnc(C)nc3)c2c(=O)n1-c1ccccc1` [Example 27, (S)-2-(1-((5-fluoroquinazolin-4-yl)amino)propyl)-5-(2-methylpyrimidin-5-yl)-3-phenylquinazolin-4(3H)-one] the same measures were 27 nM, 7260 nM and 4980 nM.
For the compound `CC(C)[C@H](Nc1ncnc2cccc(F)c12)c1nc2cccc(-c3cnc(N)nc3)c2c(=O)n1-c1ccccc1` [Example 29, (S)-5-(2-aminopyrimidin-5-yl)-2-(1-((5-fluoroquinazolin-4-yl)amino)-2-methylpropyl)-3-phenylquinazolin-4(3H)-one], the half-maximal inhibitory concentration (IC50) on PI3Kδ (p110δ/p85α)(h) came to 13 nM; on PI3Kα (p110α/p85α)(h), 2010 nM; against PI3Kγ (p120γ)(h) it was 7610 nM.
For the compound `O=c1c2c(-c3cncnc3)cccc2nc([C@@H](Nc2ncnc3cccc(F)c23)C2CC2)n1-c1ccccc1` [Example 30, (S)-2-(cyclopropyl((5-fluoroquinazolin-4-yl)amino)methyl)-3-phenyl-5-(pyrimidin-5-yl)quinazolin-4(3H)-one], the IC50 on PI3Kδ (p110δ/p85α)(h) came to 19 nM; against PI3Kα (p110α/p85α)(h), 5300 nM; on PI3Kγ (p120γ)(h), 2640 nM.
`Cc1ncc(-c2cccc3cc([C@H](C)Nc4ncnc5ccc(C#N)cc45)n(-c4ccccc4)c(=O)c23)cn1` [Example 36, (S)-4-((1-(8-(2-methylpyrimidin-5-yl)-1-oxo-2-phenyl-1,2-dihydroisoquinolin-3-yl)ethyl)amino)quinazoline-6-carbonitrile]: the values for the IC50 against PI3Kδ (p110δ/p85α)(h), on PI3Kα (p110α/p85α)(h) and at PI3Kγ (p120γ)(h) were 5 nM, 730 nM and 86 nM, respectively.
For `CC[C@H](Nc1ncnc2ccc(C#N)cc12)c1cc2cccc(-c3cncnc3)c2c(=O)n1-c1ccccc1` [Example 39, (S)-4-((1-(1-oxo-2-phenyl-8-(pyrimidin-5-yl)-1,2-dihydroisoquinolin-3-yl)propyl)amino)quinazoline-6-carbonitrile] the same measures were 1 nM, 712 nM and 195 nM.
For `CC[C@H](Nc1ncnc2ccc(C#N)cc12)c1cc2cccc(-c3cnc(OC)nc3)c2c(=O)n1-c1ccccc1` [Example 40, (S)-4-((1-(8-(2-methoxypyrimidin-5-yl)-1-oxo-2-phenyl-1,2-dihydroisoquinolin-3-yl)propyl)amino)quinazoline-6-carbonitrile] the same measures were 2 nM, 908 nM and 237 nM.
As to `CC[C@H](Nc1ncnc2ccc(C#N)cc12)c1cc2cccc(-c3cnc(C)nc3)c2c(=O)n1-c1ccccc1` [Example 42, (S)-4-((1-(8-(2-methylpyrimidin-5-yl)-1-oxo-2-phenyl-1,2-dihydroisoquinolin-3-yl)propyl)amino)quinazoline-6-carbonitrile], the results for the IC50 against PI3Kδ (p110δ/p85α)(h), against PI3Kα (p110α/p85α)(h) and against PI3Kγ (p120γ)(h) were 1 nM, 1630 nM and 654 nM, respectively.
Turning to `C[C@H](Nc1ncnc2cccc(F)c12)c1cc2cccc(-c3cnc(F)nc3)c2c(=O)n1-c1ccccc1` [Example 44, (S)-8-(2-fluoropyrimidin-5-yl)-3-(1-((5-fluoroquinazolin-4-yl)amino)ethyl)-2-phenylisoquinolin-1(2H)-one], the IC50 against PI3Kδ (p110δ/p85α)(h) is 18 nM; at PI3Kα (p110α/p85α)(h), 5630 nM; against PI3Kγ (p120γ)(h) it was 2010 nM.
